From paper PMC8386128, “Evaluation of Short-Chain Antimicrobial Peptides With Combined Antimicrobial and Anti-inflammatory Bioactivities for the Treatment of Zoonotic Skin Pathogens From Canines” (Frontiers in Microbiology, 2021)
Structures can show the parent of a compound that is named as a salt. Where two headings read alike, the source gives them in different places. No end group written: not given here.

What was measured:
[1] = test system: S. pseudintermedius MW767056; assay: Bacteriolysis analysis (culture turbidity at 600 nm); type: cell-based, Staphylococcus pseudintermedius; conditions: 4× MIC
[2] = test system: S. pseudintermedius MW767056; assay: Calcein leakage analysis (membrane permeabilization); type: cell-based, Staphylococcus pseudintermedius; conditions: 10× MIC, up to 1 h, triplicate, two independent experiments
[3] = test system: Staphylococcus pseudintermedius MW767056; conditions: peptide constant at 1/4 × MIC, 1 × 10^5 CFU/ml, triplicate
[4] = test system: S. pseudintermedius MW767056 skin infection; assay: Mouse skin infection (abrasion) model; conditions: topical 50 μl at 6× MIC daily, n = 5; for bacterial counts of infected skin tissue: inoculum 5 × 10^6 CFU, mean
[5] = test system: TNF-α; assay: Western blotting of TNF-α in infected mouse skin; type: in vivo, BALB/c mice; conditions: day 1, vs saline-treated group, normalized to β-actin, n = 3
Experimental: To examine the expression of IL-6 and TNF-α at the protein level, immunoblotting was performed as reported previously ([Tang et al., 2017]). Proteins from dorsal skin tissues were extracted for Western blotting assays. Primary antibodies included anti-IL-6 (1:1,000, Abcam, Waltham, MA, United States) and anti-TNF-α (1:1,000, Abcam, United States). To verify equal sample loading, the membrane was incubated with rabbit polyclonal anti-β-actin antibody (1:1,000, Abcam, United States) as an internal control. Horseradish peroxidase-conjugated goat anti-rabbit IgG (1:5000, Abcam, United States) was used as the secondary antibody. The membranes were exposed under a chemiluminescent imaging analysis system (GE Healthcare Life Science, Danderyd, Sweden). Samples not treated with primary antibodies were considered negative controls. Relative levels of each protein were normalized to those of β-actin in each sample.

[6] = test system: Staphylococcus cohnii MW767053; conditions: peptide constant at 1/4 × MIC, 1 × 10^5 CFU/ml, triplicate
[7] = test system: Microsporum canis MW768151; conditions: peptide constant at 1/4 × MIC, 1 × 10^5 CFU/ml, triplicate
[8] = test system: Proteus mirabilis MW767054; conditions: MW767054, 24 h
[9] = test system: Staphylococcus haemolyticus MW767051
[10] = test system: M. canis MW768151 biofilm; conditions: for MBIC: 24 h; for MBEC: 48 h
[11] = test system: S. cohnii MW767053 biofilm; conditions: for MBIC: 24 h; for MBEC: 48 h
[12] = test system: Staphylococcus cohnii MW767053
[13] = test system: Staphylococcus simulans MW767052
[14] = test system: Trichophyton mentagrophytes MW766984; conditions: 24 h
[15] = test system: Staphylococcus sciuri MW767055
[16] = test system: Microsporum gypseum MW766983; conditions: 24 h
[17] = test system: S. pseudintermedius MW767056 biofilm; conditions: for MBIC: 24 h; for MBEC: 48 h
[18] = test system: S. pseudintermedius MW767056; conditions: three replicates, two independent experiments
[19] = test system: S. cohnii MW767053; conditions: peptide incubated in 25% FBS in RPMI-1640, 37°C, 4 h, then MIC at 1 × 10^5 CFU/ml; three replicates, two independent experiments
[20] = test system: sheep and mouse erythrocytes; assay: Hemolysis assay; conditions: 4% erythrocyte suspension, 2 h, 37°C, absorption at 550 nm, triplicate
Experimental: The hemolysis assay was carried out by inoculating mammalian erythrocytes obtained from fresh defibrinated sheep and mouse blood (Thermo Fisher Scientific, Waltham, MA, United States) with the peptides. Briefly, peptides were incubated at 37°C with a 4% erythrocyte suspension with a twofold serial dilution series of peptides ranging from 512 to 1 μg/ml for 2 h. PBS and 1% nonionic detergent Triton X-100^TM (Sigma-Aldrich, St. Louis, MO, United States) diluted in PBS served as negative and positive controls, respectively. Cytolysis was evaluated by the measurement of absorption using a microplate reader at 550 nm. Experiments were done in triplicate. The hemolysis is derived from the following calculation:
Haemolysis%=A-APBS/ATriton-APBS×100%.
A represents the absorbance of samples treated with peptide, while APBS and ATriton indicate the absorbance of the negative and positive controls, respectively.

[21] = test system: Staphylococcus pseudintermedius clinical isolates; conditions: triplicate; for MBC/MFC: 10 μl plated on MH plate, no colonies; for MIC: broth microdilution, MHB, 1 × 10^5 CFU/ml, 24 h, 37°C
[22] = in combination with Allomyrinasin

Compound: CC1(C)S[C@@H]2[C@H](NC(=O)[C@H](N)c3ccc(O)cc3)C(=O)N2[C@H]1C(=O)O [Amoxicillin, amoxicillin]
- variation in culture turbidity (OD600) over 10 h ([1]; result in words): not recorded
- calcein leakage (decrease in fluorescence intensity) [2]: no obvious disruptive reaction
- FIC index [3, 22]: 0.281
- FIC index ([3]; in combination with Andricin B): indifferent interaction
- bacterial counts of infected skin tissue ([4]; day 1): 5.94 log10 CFU/g
- bacterial load in the liver ([4]; day 1): No bacterial load was detected
- bacterial counts of infected skin tissue ([4]; day 3): 3.58 log10 CFU/g
- S. pseudintermedius infection in the liver ([4]; day 3): completely prevented
- expression level of TNF-α protein in infected skin [5]: decreased
- FIC index [6, 22]: 0.3125
- FIC index ([6]; in combination with Andricin B): 0.50

Compound: CN(C/C=C/C#CC(C)(C)C)Cc1cccc2ccccc12 [Terbinafine, terbinafine hydrochloride]
- FIC index [7, 22]: 0.375
- FIC index ([7]; in combination with Andricin B): 0.50

Compound: AAVTRRILCWFA-NH2 [Allomyrinasin]
- MBC/MFC [8]: >256 µg/mL
- MIC [8]: >256 µg/mL
- MBC/MFC ([9]; 24 h): >256 µg/mL
- MIC ([9]; 24 h): >256 µg/mL
- MBIC [10]: 2 µg/mL
- MBEC [10]: 8 µg/mL
- MBIC [11]: 128 µg/mL
- MBEC [11]: 256 µg/mL
- MBC/MFC ([12]; 24 h): 32 µg/mL
- MIC ([12]; 24 h): 32 µg/mL
- MBC/MFC ([13]; 24 h): 128 µg/mL
- MIC ([13]; 24 h): 128 µg/mL
- MBC/MFC [14]: 2 µg/mL
- MIC [14]: 2 µg/mL
- MBC/MFC ([15]; 24 h): >256 µg/mL
- MIC ([15]; 24 h): >256 µg/mL
- MBC/MFC [16]: 0.5 µg/mL
- MIC [16]: 0.5 µg/mL
- MBIC [17]: 32 µg/mL
- MBEC [17]: 128 µg/mL

Compound: GLLSGILGAGKKIVF [Nigrocin-HLM]
- MBC/MFC [8]: 64 µg/mL
- MBC/MFC [16]: 1 µg/mL

Compound: GLTRLFSVIK [Andricin B]
- MIC without serum treatment ([18]; 1 × 10^5 CFU/ml): 32 µg/mL
- MIC after serum treatment ([18]; peptide incubated in 25% FBS in RPMI-1640, 37°C, 4 h, then MIC at 1 × 10^5 CFU/ml): 64 µg/mL
- MBC/MFC [8]: >256 µg/mL
- MIC [8]: >256 µg/mL
- MBC/MFC ([9]; strain MW767051, MBC, 10 μl plated on MH plate, no colonies, triplicate): >256 µg/mL
- MIC ([9]; strain MW767051, broth microdilution, MHB, 1 × 10^5 CFU/ml, 24 h, 37°C, triplicate): >256 µg/mL
- MBIC [10]: 4 µg/mL
- MBEC [10]: 16 µg/mL
- MBIC [11]: 256 µg/mL
- MBEC [11]: >256 µg/mL
- FIC index [3, 22]: 0.3125
- MBC/MFC ([12]; strain MW767053, MBC, 10 μl plated on MH plate, no colonies, triplicate): 64 µg/mL
- MIC after serum treatment [19]: 256 µg/mL
- hemolytic activity at lower concentrations ([20]; 1 to 64 μg/ml): little or no obvious hemolytic activity
- hemolytic activity at high concentrations ([20]; >64 μg/ml): slight hemolytic activity
- MBC/MFC ([13]; strain MW767052, MBC, 10 μl plated on MH plate, no colonies, triplicate): 256 µg/mL
- MIC ([13]; strain MW767052, broth microdilution, MHB, 1 × 10^5 CFU/ml, 24 h, 37°C, triplicate): 256 µg/mL
- MBC/MFC [14]: 1 µg/mL
- MIC [14]: 1 µg/mL
- MBC/MFC ([15]; strain MW767055, MBC, 10 μl plated on MH plate, no colonies, triplicate): >256 µg/mL
- MIC ([15]; strain MW767055, broth microdilution, MHB, 1 × 10^5 CFU/ml, 24 h, 37°C, triplicate): >256 µg/mL
- MBC/MFC [16]: 2 µg/mL
- MIC [16]: 2 µg/mL
- FIC index [6, 22]: 0.50
- MBC/MFC ([21]; strain MW767046): 32 µg/mL
- MIC ([21]; strain MW767046): 32 µg/mL
- MBC/MFC ([21]; strain MW767056): 32 µg/mL
- MIC ([21]; strain MW767056): 32 µg/mL
- MBC/MFC ([21]; strain MW793383): 32 µg/mL
- MIC ([21]; strain MW793383): 32 µg/mL
- MBC/MFC ([21]; strain MW793384): 128 µg/mL
- MIC ([21]; strain MW793384): 128 µg/mL
- MBC/MFC ([21]; strain MW793385): 64 µg/mL
- MIC ([21]; strain MW793385): 64 µg/mL
- MBC/MFC ([21]; strain MW793386): 64 µg/mL
- MIC ([21]; strain MW793386): 64 µg/mL
- MBC/MFC ([21]; strain MW793387): 128 µg/mL
- MIC ([21]; strain MW793387): 128 µg/mL
- MBC/MFC ([21]; strain MW793388): 64 µg/mL
- MIC ([21]; strain MW793388): 64 µg/mL
- MBC/MFC ([21]; strain MW793389): 128 µg/mL
- MIC ([21]; strain MW793389): 128 µg/mL
- MBC/MFC ([21]; strain MW793390): 128 µg/mL
- MIC ([21]; strain MW793390): 128 µg/mL
- MBC/MFC ([21]; strain MW793391): 32 µg/mL
- MIC ([21]; strain MW793391): 32 µg/mL
- MBC/MFC ([21]; strain MW793392): 64 µg/mL
- MIC ([21]; strain MW793392): 64 µg/mL
- MBIC [17]: 128 µg/mL
- MBEC [17]: 256 µg/mL

Compound: ITSISLCTPGCKTGALMGCNMKTATCHCSIHVSK [Nisin, well-known membrane-perturbing peptide, positive control]
- decrease in absorbance (turbidity, OD600) ([1]; after 2.5 h, MHB, triplicate): > 60%
- calcein leakage (decrease in fluorescence intensity) [2]: at least 95%

Compound: KWAVRIIRKFIKGFIS [Hs02]
- MBC/MFC [8]: 128 µg/mL
- MIC [8]: 128 µg/mL
- MBC/MFC ([9]; 24 h): 128 µg/mL
- MIC ([9]; 24 h): 128 µg/mL
- MBC/MFC ([12]; 24 h): 32 µg/mL
- MIC ([12]; 24 h): 32 µg/mL
- MBC/MFC ([13]; 24 h): 64 µg/mL
- MIC ([13]; 24 h): 64 µg/mL
- MBC/MFC [14]: 1 µg/mL
- MIC [14]: 1 µg/mL
- MBC/MFC ([15]; 24 h): >256 µg/mL
- MIC ([15]; 24 h): >256 µg/mL
- MBC/MFC [16]: 0.5 µg/mL
- MIC [16]: 0.5 µg/mL

Compound: VAEARQGSFSY [Pinipesin]
- MBC/MFC [8]: >256 µg/mL
- MIC [8]: >256 µg/mL
- MBC/MFC ([9]; 24 h): >256 µg/mL
- MIC ([9]; 24 h): >256 µg/mL
- MBIC [10]: 4 µg/mL
- MBEC [10]: 16 µg/mL
- MBIC [11]: >256 µg/mL
- MBEC [11]: >256 µg/mL
- MBC/MFC ([12]; 24 h): >256 µg/mL
- MIC ([12]; 24 h): >256 µg/mL
- MBC/MFC ([13]; 24 h): 128 µg/mL
- MIC ([13]; 24 h): 128 µg/mL
- MBC/MFC [14]: 0.5 µg/mL
- MIC [14]: 0.5 µg/mL
- MBC/MFC ([15]; 24 h): >256 µg/mL
- MIC ([15]; 24 h): >256 µg/mL
- MBC/MFC [16]: 2 µg/mL
- MIC [16]: 2 µg/mL
- MBIC [17]: >256 µg/mL
- MBEC [17]: >256 µg/mL
